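Each compound was tested at five concentrations against cells in 96-well plates for 48 hours. TGI denotes the concentration required for complete inhibition of growth.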
How the values were obtained:
Test in all cases: inhibition of tumour cell growth, NCI panel, 48 h
CCRF-CEM leukemia = tested on: CCRF-CEM leukemia
DU-145 prostate = tested on: DU-145 prostate
RXF 393 renal = tested on: RXF 393 renal
CAKI-1 renal = tested on: CAKI-1 renal
HL-60(TB) leukemia = tested on: HL-60(TB) leukemia
ACHN renal = tested on: ACHN renal
OVCAR-3 ovarian = tested on: OVCAR-3 ovarian
PC-3 prostate = tested on: PC-3 prostate
SR leukemia = tested on: SR leukemia
T-47D breast = tested on: T-47D breast
HT29 colon = tested on: HT29 colon
MDA-MB-435 = tested on: MDA-MB-435
K-562 leukemia = tested on: K-562 leukemia
UO-31 renal = tested on: UO-31 renal
OVCAR-8 ovarian = tested on: OVCAR-8 ovarian
OVCAR-5 ovarian = tested on: OVCAR-5 ovarian
MDA-N = tested on: MDA-N
NCI/ADR-RES ovarian = tested on: NCI/ADR-RES ovarian
HCT-15 colon = tested on: HCT-15 colon
HS 578T breast = tested on: HS 578T breast
SK-MEL-2 melanoma = tested on: SK-MEL-2 melanoma
NCI-H226 lung = tested on: NCI-H226 lung
HOP-62 NSCLC = tested on: HOP-62 NSCLC
MOLT-4 leukemia = tested on: MOLT-4 leukemia
SNB-75 CNS = tested on: SNB-75 CNS
SN12C renal = tested on: SN12C renal
OVCAR-4 ovarian = tested on: OVCAR-4 ovarian
SF-268 CNS = tested on: SF-268 CNS
KM12 colon = tested on: KM12 colon
IGROV1 ovarian = tested on: IGROV1 ovarian
HCC-2998 colon = tested on: HCC-2998 colon
M14 melanoma = tested on: M14 melanoma
UACC-62 melanoma = tested on: UACC-62 melanoma
COLO 205 colon = tested on: COLO 205 colon
NCI-H460 lung = tested on: NCI-H460 lung
SW-620 colon = tested on: SW-620 colon
NCI-H23 lung = tested on: NCI-H23 lung
NCI-H522 lung = tested on: NCI-H522 lung
SK-MEL-28 melanoma = tested on: SK-MEL-28 melanoma
BT-549 breast = tested on: BT-549 breast
HOP-92 NSCLC = tested on: HOP-92 NSCLC
RPMI-8226 leukemia = tested on: RPMI-8226 leukemia
UACC-257 melanoma = tested on: UACC-257 melanoma
MDA-MB-231 breast = tested on: MDA-MB-231 breast
U251 CNS = tested on: U251 CNS
EKVX NSCLC = tested on: EKVX NSCLC
LOX IMVI melanoma = tested on: LOX IMVI melanoma
TK-10 renal = tested on: TK-10 renal
SF-539 CNS = tested on: SF-539 CNS
HCT-116 colon = tested on: HCT-116 colon
SK-OV-3 ovarian = tested on: SK-OV-3 ovarian
SNB-19 CNS = tested on: SNB-19 CNS
MCF7 breast = tested on: MCF7 breast
SF-295 CNS = tested on: SF-295 CNS
786-0 renal = tested on: 786-0 renal
A549 NSCLC = tested on: A549 NSCLC
MALME-3M melanoma = tested on: MALME-3M melanoma
SK-MEL-5 melanoma = tested on: SK-MEL-5 melanoma
A498 renal = tested on: A498 renal

CCCC1CCC(=C2C(=O)CCC2=O)O1 (stereo not drawn)
TGI (CCRF-CEM leukemia): > 100 µM | TGI (DU-145 prostate): > 100 µM | TGI (RXF 393 renal): > 100 µM | TGI (CAKI-1 renal): > 100 µM | TGI (HL-60(TB) leukemia): > 100 µM | TGI (ACHN renal): > 100 µM | TGI (OVCAR-3 ovarian): > 100 µM | TGI (PC-3 prostate): > 100 µM | TGI (SR leukemia): > 100 µM | TGI (T-47D breast): > 100 µM | TGI (HT29 colon): > 100 µM | TGI (MDA-MB-435): > 100 µM | TGI (K-562 leukemia): > 100 µM | TGI (UO-31 renal): > 100 µM | TGI (OVCAR-8 ovarian): > 100 µM | TGI (OVCAR-5 ovarian): > 100 µM | TGI (MDA-N): > 100 µM | TGI (NCI/ADR-RES ovarian): > 100 µM | TGI (HCT-15 colon): > 100 µM | TGI (HS 578T breast): > 100 µM | TGI (SK-MEL-2 melanoma): > 100 µM | TGI (NCI-H226 lung): > 100 µM | TGI (HOP-62 NSCLC): > 100 µM | TGI (MOLT-4 leukemia): > 100 µM | TGI (SNB-75 CNS): > 100 µM | TGI (SN12C renal): > 100 µM | TGI (OVCAR-4 ovarian): > 100 µM | TGI (SF-268 CNS): > 100 µM | TGI (KM12 colon): > 100 µM | TGI (IGROV1 ovarian): > 100 µM | TGI (HCC-2998 colon): > 100 µM | TGI (M14 melanoma): > 100 µM | TGI (UACC-62 melanoma): > 100 µM | TGI (COLO 205 colon): > 100 µM | TGI (NCI-H460 lung): > 100 µM | TGI (SW-620 colon): > 100 µM | TGI (NCI-H23 lung): > 100 µM | TGI (NCI-H522 lung): > 100 µM | TGI (SK-MEL-28 melanoma): > 100 µM | TGI (BT-549 breast): > 100 µM | TGI (HOP-92 NSCLC): > 100 µM | TGI (RPMI-8226 leukemia): > 100 µM | TGI (UACC-257 melanoma): > 100 µM | TGI (MDA-MB-231 breast): > 100 µM | TGI (U251 CNS): > 100 µM | TGI (EKVX NSCLC): > 100 µM | TGI (LOX IMVI melanoma): > 100 µM | TGI (TK-10 renal): > 100 µM | TGI (SF-539 CNS): > 100 µM | TGI (HCT-116 colon): > 100 µM | TGI (SK-OV-3 ovarian): > 100 µM | TGI (SNB-19 CNS): > 100 µM | TGI (MCF7 breast): > 100 µM | TGI (SF-295 CNS): > 100 µM | TGI (786-0 renal): > 100 µM | TGI (A549 NSCLC): > 100 µM

CC(=O)Oc1ccc(/C=C/C(=O)OCCCOC(=O)/C=C/c2ccc(OC(C)=O)c(OC(C)=O)c2)cc1OC(C)=O
TGI (DU-145 prostate): > 100 µM | TGI (RXF 393 renal): > 100 µM | TGI (CAKI-1 renal): > 100 µM | TGI (HL-60(TB) leukemia): 18.2 µM | TGI (ACHN renal): > 100 µM | TGI (OVCAR-3 ovarian): > 100 µM | TGI (PC-3 prostate): > 100 µM | TGI (SR leukemia): > 100 µM | TGI (T-47D breast): > 100 µM | TGI (HT29 colon): > 100 µM | TGI (MDA-MB-435): > 100 µM | TGI (K-562 leukemia): > 100 µM | TGI (UO-31 renal): > 100 µM | TGI (OVCAR-8 ovarian): > 100 µM | TGI (OVCAR-5 ovarian): > 100 µM | TGI (MDA-N): > 100 µM | TGI (NCI/ADR-RES ovarian): > 100 µM | TGI (HCT-15 colon): > 100 µM | TGI (HS 578T breast): > 100 µM | TGI (SK-MEL-2 melanoma): > 100 µM | TGI (HOP-62 NSCLC): > 100 µM | TGI (MOLT-4 leukemia): > 100 µM | TGI (SNB-75 CNS): > 100 µM | TGI (SN12C renal): > 100 µM | TGI (OVCAR-4 ovarian): > 100 µM | TGI (SF-268 CNS): > 100 µM | TGI (KM12 colon): > 100 µM | TGI (IGROV1 ovarian): > 100 µM | TGI (HCC-2998 colon): > 100 µM | TGI (M14 melanoma): > 100 µM | TGI (UACC-62 melanoma): > 100 µM | TGI (COLO 205 colon): > 100 µM | TGI (NCI-H460 lung): > 100 µM | TGI (SW-620 colon): > 100 µM | TGI (NCI-H23 lung): > 100 µM | TGI (NCI-H522 lung): > 100 µM | TGI (MALME-3M melanoma): > 100 µM | TGI (SK-MEL-28 melanoma): > 100 µM | TGI (BT-549 breast): > 100 µM | TGI (SK-MEL-5 melanoma): > 100 µM | TGI (HOP-92 NSCLC): > 100 µM | TGI (RPMI-8226 leukemia): > 100 µM | TGI (UACC-257 melanoma): > 100 µM | TGI (MDA-MB-231 breast): > 100 µM | TGI (U251 CNS): > 100 µM | TGI (EKVX NSCLC): > 100 µM | TGI (A498 renal): > 100 µM | TGI (LOX IMVI melanoma): > 100 µM | TGI (TK-10 renal): > 100 µM | TGI (SF-539 CNS): > 100 µM | TGI (HCT-116 colon): > 100 µM | TGI (SK-OV-3 ovarian): > 100 µM | TGI (SNB-19 CNS): > 100 µM | TGI (MCF7 breast): > 100 µM | TGI (SF-295 CNS): > 100 µM | TGI (786-0 renal): > 100 µM | TGI (A549 NSCLC): > 100 µM

— PubChem BioAssay (NCI)
